Experiments:
NHDF cells = experiment: MTT assay, NHDF; format: cell-based, human; details: 24 h, 0.004 mM to 0.5 mM
Description: (§1) As mentioned earlier, MMP-13 is overexpressed and functionally significant in various cancers, including melanoma and colorectal carcinoma. For instance, high MMP-13 levels have been correlated with metastasis and poor survival in melanoma patients. In colorectal cancer, elevated MMP-13 activity has been observed in tumors compared to normal mucosa, and its expression is associated with a worse prognosis. Based on computational studies, four out of the eleven designed compounds showing the most promising predicted activity against MMP-13 were selected for biological evaluation. For the MTT assay, NHDF cells were used as the healthy reference cell line, while A375 (melanoma) and HT-29 (colorectal adenocarcinoma cancer) cell lines were chosen as cancer models.
(§2) Experiments were conducted using two cancer cell lines and, as a control, a normal human dermal fibroblasts (NHDF; ATCC PCS-201-012). The A375 cell line (human melanoma, ATCC CRL-1619), and HT-29 cell line (human colorectal adenocarcinoma, ATCC HTB-38) were cultured in DMEM (Dulbecco’s Modified Eagle Medium, Institute of Immunology and Experimental Therapy (IITD), Wrocław, Poland) supplemented with 1% antibiotics (10 U/mL penicillin and 10 µg/mL streptomycin, Sigma-Aldrich, St Louis, MO, USA), 1% glutamine (Sigma-Aldrich, St Louis, MO, USA) and 10% fetal bovine serum (FBS, Gibco, Grand Island, NY, USA). For NHDF cultures, α-MEM (α-Minimum Essentials Medium, Institute of Immunology and Experimental Therapy (IITD), Poland) was used with the same supplement combination as for the cancer cell lines. All cells were maintained in a humidified incubator (INCO 105, Memmert GmbH, Schwabach, Germany) at 37 °C with 5% CO2 and 95% humidity. Cells were passaged routinely by trypsinization (twice a week). For the MTT (3-(4,5-simethylthiazol-2,5-diphenyltetrazolinum bromide), Sigma, St. Louis, MO, USA) assay, cells were used after 2–4 passages, when they reached approximately 80% confluence.
(§3) All tested compounds were dissolved in DMSO to obtain stock solutions with a final concentration of 50 mM (3a, 3b, 3e), 40 mM (3f, 3g, 3i, 3j), and 35 mM (3h, 3k). […] In the next step, 10 µL of each stock solution was added to 990 µL of supplemented medium.
(§4) The MTT assay was performed in 96-well plates, with a seeding density of 1 × 10^4 cells per well. All cell lines were incubated for 24 h in their respective media: α-MEM for (NHDF cells) and DMEM for (A375 and HT-29) cells. After incubation, the medium was removed and replaced with fresh medium containing the tested compounds at concentrations ranging from 0.004 mM to 0.5 mM. […] Absorbance was measured spectrophotometrically at a wavelength of 570 nm using a BioTek SYNERGY H1 microplate reader (Agilent, Santa Clara, CA, USA).

A375 (melanoma) cells = experiment: MTT assay, A375; format: cell-based, human; details: for reduction in cancer cell viability / anticancer potential (A375): MTT, 24 h, 0.004 mM to 0.5 mM
Description: as §1, §2, §3, §4

[1] = system: HT-29 (colorectal adenocarcinoma) cells; experiment: MTT assay, HT-29; format: cell-based, human; details: for reduction in cancer cell viability / anticancer potential (HT-29): MTT, 24 h, 0.004 mM to 0.5 mM
Description: as §1, §2, §3, §4

[2] = Solubility on preparing DMSO stock solutions; format: physicochemical; details: dissolved to 30 mM
Description: as §3

MMP-13 = molecular target: T1, MMP-13 (Homo sapiens, UniProt P45452); experiment: MMP-13 inhibitor screening assay kit (fluorometric); format: biochemical; details: single-point screening; tested compounds 1.8 to 4.6 µM
T1 construct: purchased Abcam ab139451
Description: (§5) The inhibitory activity of the designed compounds against MMP-13 was evaluated using a commercial fluorometric MMP-13 inhibitor assay kit (Abcam, Cambridge, UK), following the manufacturer’s protocol. Solutions of the tested compounds were prepared at concentrations ranging from 1.8 to 4.6 µM. N-isobutyl-N-(4-methoxyphenylsulfonyl)glycyl hydroxamic acid (NNGH), a broad-spectrum inhibitor of matrix metalloproteinases, was used as positive control. […] In parallel, MMP-8 inhibition assays were also conducted using the same concentrations of compounds 3b, 3c, 3d, and 3g.
(§6) It should be emphasized that these assays were performed as single-point screening experiments, optimized for rapid qualitative assessment rather than full kinetic characterization. Consequently, the observed differences in activity between MMP-13 and MMP-8 are indicative trends supporting the selectivity predicted by computational studies, including docking, molecular dynamics simulations, and binding free energy calculations, rather than providing definitive quantitative evidence.
(§7) The inhibitory activity of the tested compounds was evaluated using the MMP-13 inhibitor screening assay kit (fluorometric) (Abcam, ab139451). The assay performed according to the manufacturer’s instructions. The designed compounds were tested at concentrations ranging from 1.8 to 4.6 µM, to determine their inhibitory activity. […]

MMP-8 = molecular target: T2, MMP-8 (Homo sapiens, UniProt P22894); experiment: MMP-8 inhibitory screening assay kit (fluorometric); format: biochemical; details: single-point screening; same concentrations, 1.8 to 4.6 µM
T2 construct: purchased Abcam ab139453
Description: as §5, §6, §7

MTT assay, NHDF = format: cell-based, human; details: human, NHDF cells (normal human dermal fibroblasts), 0.004 mM to 0.5 mM
Description: as §1, §2, §3, §4

T2 sequence (P22894 101-467): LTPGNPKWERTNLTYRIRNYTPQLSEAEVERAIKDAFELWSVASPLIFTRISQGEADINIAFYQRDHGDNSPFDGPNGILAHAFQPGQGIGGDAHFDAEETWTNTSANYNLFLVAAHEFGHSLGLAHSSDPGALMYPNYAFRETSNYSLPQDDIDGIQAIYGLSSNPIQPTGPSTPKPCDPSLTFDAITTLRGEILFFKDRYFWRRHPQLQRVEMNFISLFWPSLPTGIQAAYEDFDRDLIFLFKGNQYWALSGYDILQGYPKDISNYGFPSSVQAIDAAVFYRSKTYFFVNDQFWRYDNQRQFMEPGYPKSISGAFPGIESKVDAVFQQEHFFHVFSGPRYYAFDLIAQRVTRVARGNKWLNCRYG

Structure (SMILES) | toxicity toward healthy NHDF cells (NHDF cells) | selectivity ratio A375:NHDF (A375 (melanoma) cells; at a concentration of 0.5 mM) | selectivity ratio HT-29:NHDF ([1]; at a concentration of 0.5 mM) | reduction in cancer cell viability / anticancer potential (A375) (A375 (melanoma) cells) | reduction in cancer cell viability / anticancer potential (HT-29) [1] | solubility [2] | MMP-13 activity inhibition (MMP-13) | MMP-8 activity inhibition (MMP-8) | viability at 24 h (MTT assay, NHDF) [%]
Cc1cc(C)c(C(=O)NCC(=O)NCc2ccc(Oc3ccccc3)cc2)c(S)n1 [Compound 3b, 4,6-dimethyl-N-{2-[(4-phenoxybenzyl)amino]-2-oxoethyl}-2-sulfanylpyridine-3-carboxamide] | lowest toxicity toward healthy cells | 0.56 | 0.43 | – | – | – | – | – | –
Cc1cc(C)c(C(=O)NCC(=O)NCc2ccc(Cl)cc2)c(S)n1 [Compound 3c, N-{2-[(4-chlorobenzyl)amino]-2-oxoethyl}-4,6-dimethyl-2-sulfanylpyridine-3-carboxamide] | highest toxicity toward healthy NHDF | – | – | strongest reduction in cancer cell viability | strongest reduction in cancer cell viability | low solubility | – | – | –
Cc1cc(C)c(C(=O)NCC(=O)NCc2ccccc2)c(S)n1 [Compound 3g, 4,6-dimethyl-N-[2-(benzylamino)-2-oxoethyl]-2-sulfanylpyridine-3-carboxamide] | – | – | – | only moderate anticancer potential | only moderate anticancer potential | – | most pronounced inhibitory effect | slight inhibitory activity | –
Cc1cc(C)c(C(=O)NCC(=O)NCc2ccccc2Cl)c(S)n1 [Compound 3d, N-{2-[(2-chlorobenzyl)amino]-2-oxoethyl}-4,6-dimethyl-2-sulfanylpyridine-3-carboxamide] | highest toxicity toward healthy NHDF | – | – | strongest reduction in cancer cell viability | strongest reduction in cancer cell viability | low solubility | – | – | > 63

Reference: article PMC12736008, “New Dimethylpyridine-3-Carboxamide Derivatives as MMP-13 Inhibitors with Anticancer Activity” (Molecules, 2025)
